Experimental findings from the METLIN SMRT retention time set (Domingo-Almenara et al. 2019) are described below.

The data set can be described thus: gradient 5% acetonitrile 3 min, to 50% in 2 min, to 85% in 15 min, held 3 min, 100 µL/min. Particulars: column: Zorbax Extend-C18 2.1 x 50 mm; eluents: water / acetonitrile, 0.1% formic acid. The gist of the method:
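Data were gathered over 3 months by HPLC coupled to a quadrupole time-of-flight mass spectrometer, operated in positive and negative ionization mode. Mixtures of ~100 pure standards ran on a Zorbax Extend-C18 column (2.1 × 50 mm, 1.8 μm) at 100 μL/min, with water and acetonitrile each containing 0.1% formic acid and dead and dwell volumes of 40 μL and 900 μL. Retention time was read from adduct peaks picked by computer and checked manually.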
`CNC(=O)C1CCN(C(=O)Nc2ccc(NC(=O)Nc3ccc(C)cc3)cc2)CC1` registered an RP-LC retention time of 658 s.

Take `CC(C)S(=O)(=O)c1cc2c(cc1NC(=O)c1ccccc1Br)n(C)c(=O)n2C`: the RP-LC retention time was found to be 822 s.

Molecule `O=C(c1ccc[nH]1)N1CCC2(CC1)NC(=O)N(Cc1cccc(Cl)c1)C2=O` returned an RP-LC retention time of 769 s.

`COCCNC(=O)c1cc(-c2ccc(C)c(C)c2)[nH]c1C` yielded an RP-LC retention time of 772 s.

The molecule `Cc1ccc2ncn(C3CCN(C(=O)Nc4ccc(C)c(C)c4)CC3)c(=O)c2c1` yielded an RP-LC retention time of 799 s.

Molecule `O=C(Nc1c(-c2ccc(F)cc2)nc2ccccn12)c1ccc(F)cc1` gave an RP-LC retention time of 671 s.

As to `COc1cc(NC(=O)Cc2ccc(S(=O)(=O)C(C)C)cc2)c2ncccc2c1`, the RP-LC retention time came to 827 s.

On to `CCOc1ccc(-n2ccnc(NC(=O)Nc3ccc(F)cc3)c2=O)cc1`, for which the RP-LC retention time was determined as 985 s.

Take `COc1cccc(N2CCN(S(=O)(=O)c3cc(-c4nc(C)cs4)cs3)CC2)c1`: the RP-LC retention time came to 1070 s.

Take `CCOc1ccc(OCC)c(NC(=O)C2=C(C)C(=O)OC23CCCCCC3)c1`: the RP-LC retention time is 1250 s.

As for `COc1ccc(N2CCN(c3cc(SCC(=O)NCCCc4ccccc4)ncn3)CC2)cc1`, the RP-LC retention time was determined as 1110 s.

`CSc1ccccc1NC(=O)C(=O)NCC1CCN(Cc2cc(C)oc2C)CC1` gave an RP-LC retention time of 615 s.

The molecule `CCn1ccc(C(=O)N2CCCN(C3=NS(=O)(=O)C(c4ccc(C)cc4)=C3C)CC2)n1` displayed an RP-LC retention time of 790 s.

`CCCS(=O)(=O)Nc1ccc(F)c(C(=O)c2c[nH]c3ncc(Cl)cc23)c1F`: the RP-LC retention time came to 878 s.

`CC(C)NC(=O)c1ccc(OCC2CCCN2C(=O)c2ccc(C#N)cc2)cc1` (centres undefined) had an RP-LC retention time of 734 s.

In turn, `CCOc1ccc(C(=O)Nc2cccnc2)nn1` displayed an RP-LC retention time of 552 s.

`Cc1cc2nn(CC(=O)N3CCOCC3)c(=O)n2c(-c2cccc(Cl)c2)n1` returned an RP-LC retention time of 708 s.

As for `Cc1cc(C)nc(SCc2nnc(SCC(=O)Nc3nccs3)o2)n1`, the RP-LC retention time was 600 s.

As to `CNC(=O)c1ccc(-c2nc3cc(NS(=O)(=O)c4cccc(Cl)c4)ccc3n2C)cc1`, the RP-LC retention time was 653 s.

The molecule `O=C(NCc1cc(-c2ccc3c(c2)OCO3)on1)c1cc(=O)c2ccccc2o1` gave an RP-LC retention time of 758 s.

`Cc1ccc(NC(=O)Nc2cccn3nc(C4CC4)nc23)cc1` came in with an RP-LC retention time of 912 s.

`COC(=O)c1cnc2nc(C)ccc2c1Nc1ccc(F)c(Cl)c1` yielded an RP-LC retention time of 717 s.

In turn, `COc1ccccc1Cc1noc(C2CN(C(=O)CCc3c(C)noc3C)C2)n1` gave an RP-LC retention time of 738 s.

Take `CCn1nccc1C(=O)N1CCCC1c1ccc(F)cc1` (centres undefined): the RP-LC retention time stood at 785 s.

With `O=S1(=O)C[C@H](N2CCN(c3ncccn3)CC2)[C@@H](S(=O)(=O)c2ccc(F)cc2)C1`, the RP-LC retention time stood at 772 s.

Turning to `CCOc1ccc(OCC)c(NC(=O)C2CCN(C(=O)C3Sc4ccccc4NC3=O)CC2)c1` (centres undefined), the RP-LC retention time was 882 s.

The molecule `CC1=C(C(=O)Nc2cccc(C(=O)N3CCN(c4ccccn4)CC3)c2)SCCO1` gave an RP-LC retention time of 612 s.

In turn, `CC(NC(=O)CCCn1c2ccccc2c2cnn(C)c(=O)c21)c1ccccc1` (centres undefined) had an RP-LC retention time of 873 s.

On to `COc1ccccc1N1CCN(S(=O)(=O)c2cc(-c3nc(C(C)C)cs3)sc2C)CC1`, for which the RP-LC retention time was found to be 1410 s.

In the case of `CCOC(=O)Cc1csc(NC(=O)c2csc(Nc3cccc(Cl)c3)n2)n1`, the RP-LC retention time stood at 952 s.

Turning to `Cc1cccc(OCc2nc(C)c(C(=O)Nc3nc(-c4ccc5c(c4)OCCCO5)cs3)s2)c1`, the RP-LC retention time amounted to 1230 s.

On to `COC(=O)c1c(C)[nH]c(C(=O)N2CCC(CC(=O)N3CCN(C4CCCCC4)CC3)CC2)c1C`, for which the RP-LC retention time was found to be 594 s.

With `CCn1nnc2c(N3CCN(CC(=O)NC4CCCC4)CC3)ncnc21`, the RP-LC retention time was determined as 550 s.

On to `O=C(Cn1nc(N2CCCCCC2)c2ccccc2c1=O)Nc1ccc(Cl)cc1`, for which the RP-LC retention time amounted to 1160 s.

With `COc1cc2c(cc1Oc1ccc(OC)c3c1CC1c4c(cc(OC)c(OC)c4-3)CCN1C)CC1c3c(cc(OC)c(OC)c3-2)CCN1C` (centres undefined), the RP-LC retention time came out at 616 s.

On to `COc1ccc(NC(=O)N2CCN(CCn3c(C(F)(F)F)nc4cccnc43)CC2)cc1`, for which the RP-LC retention time was 624 s.

In turn, `CCOc1cccc(-c2noc(Cn3nc(-c4ccc5c(c4)OCO5)ccc3=O)n2)c1` came in with an RP-LC retention time of 1130 s.

In the case of `CCc1ccccc1S(=O)(=O)NCc1cccnc1-c1ccc(OC)cc1`, the RP-LC retention time was found to be 718 s.

Consider `CCN1C(=O)COc2ccc(-c3noc(CNC(=O)C(c4ccccc4)c4ccccc4)n3)cc21`, for which the RP-LC retention time stood at 975 s.

The molecule `Cc1cc(OCC(=O)Nc2nc(-c3ccccc3)cs2)cc(C)c1Cl` came in with an RP-LC retention time of 1250 s.

The molecule `CCOc1ccccc1CNC(=O)C1CCCN(c2ccc(=O)n(-c3cccc(Cl)c3)n2)C1` (centres undefined) returned an RP-LC retention time of 968 s.

As for `Cc1cccc(NC(=O)CN2CCN(Cc3ccc(F)cc3)C(=O)C2=O)c1C`, the RP-LC retention time was 732 s.

On to `O=C(N1CCCC1)N1CCN(c2ccccc2F)CC1`, for which the RP-LC retention time amounted to 762 s.

The molecule `COc1ccc(CN2CCN(C(=O)CCC(=O)N3CCCn4nc(C)cc43)CC2)c(OC)c1OC` registered an RP-LC retention time of 595 s.

As for `CCC(C)NC(=O)N1CC(Oc2ccc(-c3noc(COC)n3)cc2)C1` (centres undefined), the RP-LC retention time was found to be 794 s.

In turn, `Cc1ccc(NC(=O)NC2CCN(c3ccccc3)C2=O)cc1Cl` (centres undefined) returned an RP-LC retention time of 915 s.

On to `Cc1cc(C)cc(-c2nnc(Cc3nc(-c4ccccc4F)no3)o2)c1`, for which the RP-LC retention time stood at 1080 s.

Take `Cc1ccc(NC(=O)Cn2cnc3nc(N4CCCC(C(=O)NC5CC5)C4)sc3c2=O)cc1C` (centres undefined): the RP-LC retention time amounted to 693 s.

For the molecule `O=C(NCc1ccco1)C1CCN(c2nccnc2Sc2ccccc2)CC1`, the RP-LC retention time was found to be 883 s.

Consider `Cc1c(C2CCN(C(=O)c3ccco3)CC2)noc1N`, for which the RP-LC retention time is 620 s.

Consider `CCCS(=O)(=O)N1CC[C@@H]2COCCN(Cc3ccccc3)[C@@H]2C1`, for which the RP-LC retention time came to 626 s.

`COc1ccccc1N1CCN(C(=O)C2CCN(S(=O)(=O)c3cn(C(C)C)cn3)CC2)CC1` gave an RP-LC retention time of 716 s.

Molecule `Cc1ccc(C)c(NS(=O)(=O)c2cc3n(c2)CCN(C)C3=O)c1` showed an RP-LC retention time of 707 s.

In turn, `CCc1ccc(C2=C(C)C(N3CCCN(C(=O)NC)CC3)=NS2(=O)=O)cc1` gave an RP-LC retention time of 746 s.

In turn, `COc1ccc(-c2cc(C(=O)NC3CCCC3)nn2C2CCS(=O)(=O)C2)cc1` (centres undefined) had an RP-LC retention time of 849 s.

`CCc1ccc(S(=O)(=O)N2C[C@@H](F)C[C@H]2C(=O)N2CCCCC2)cc1` returned an RP-LC retention time of 866 s.

In turn, `O=C(NCC(O)c1ccsc1)Nc1cccs1` (centres undefined) showed an RP-LC retention time of 642 s.

`O=C(CN1C(=O)C2CCCCN2c2ccc(S(=O)(=O)N3CCCC3)cc21)NCc1ccccc1` (centres undefined): the RP-LC retention time is 921 s.

`CCN1C(=O)COc2ccc(-c3nc(NC(=O)c4cccc(OC)c4)sc3C)cc21`: the RP-LC retention time turned out to be 1040 s.

On to `CC(C)NC(=O)N1CCCN(S(=O)(=O)C(C)C)CC1`, for which the RP-LC retention time amounted to 649 s.

The molecule `CCn1nccc1-c1cccc(-c2noc(CCS(=O)(=O)c3ccc(C)cc3)n2)c1` yielded an RP-LC retention time of 993 s.

`CCc1nc2ccccc2c(=O)n1Cc1noc(-c2cc(OC)c(OC)c(OC)c2)n1` had an RP-LC retention time of 919 s.

Molecule `Brc1c(Br)c(Br)c2n[nH]nc2c1Br` showed an RP-LC retention time of 1010 s.

In turn, `CCCCOC(=O)CSc1nnc(-c2cc(OC)c(OC)c(OC)c2)o1` came in with an RP-LC retention time of 1000 s.

Molecule `CCc1noc(C2(NC(=O)c3nccc4ccccc34)CCCCC2)n1` had an RP-LC retention time of 1060 s.

For `COCc1noc([C@@H]2CC(F)(F)CN2C(=O)c2cncn2C)n1`, the RP-LC retention time worked out at 584 s.

For `CC(=O)Nc1ccc(C(=O)NC(C(=O)N2CCCc3ccccc32)c2ccccc2)cc1` (centres undefined), the RP-LC retention time stood at 850 s.

With `CCOC(=O)c1nc(N(C)c2ccccc2CC)c2ccccc2n1`, the RP-LC retention time was 1010 s.

In the case of `CCCC1c2nccn2CCCN1C(=O)c1occc1C` (centres undefined), the RP-LC retention time worked out at 611 s.

`Cc1ccc(N2CC(c3noc(-c4ccc(C)c(F)c4)n3)CC2=O)cc1` (centres undefined) returned an RP-LC retention time of 1100 s.

The molecule `CCOC(=O)c1ccc(NC(=O)CSc2ccc3nnc(-c4ccccn4)n3n2)cc1` came in with an RP-LC retention time of 656 s.

As to `Cc1ccc(-c2cc(C(=O)N3CCOCC3)nn2C2CCS(=O)(=O)C2)cc1C` (centres undefined), the RP-LC retention time was found to be 780 s.

For `CN1CCN(C(c2cccnc2)c2c(NC(=O)c3ccco3)sc3c2CCCC3)CC1` (centres undefined), the RP-LC retention time stood at 611 s.

`Cc1ccc(NC(=O)C(=O)c2ccc[nH]2)c(Br)c1` displayed an RP-LC retention time of 1060 s.

The molecule `COCCN1C(=O)c2oc3ccc(F)cc3c(=O)c2C1c1ccc([N+](=O)[O-])cc1` (centres undefined) registered an RP-LC retention time of 803 s.

Consider `COc1ccc(-c2c(C(=O)Nc3cc(OC)ccc3OC)nc3ccccn23)cc1`, for which the RP-LC retention time was 1030 s.

With `Cc1cc(C)cc(C(=O)N2CC=C(C(=O)NC3CC3)CC2)c1`, the RP-LC retention time is 755 s.

Molecule `O=C(Nc1cccc([N+](=O)[O-])c1)N1CCN(c2ccccc2)CC1` registered an RP-LC retention time of 829 s.

As for `CCc1nc(-c2csc(S(=O)(=O)N3CCC(C(=O)Nc4ccc(C)c(C)c4)CC3)c2)no1`, the RP-LC retention time is 660 s.
